Laboratory results: ChEMBL document CHEMBL1123222, “Inactivation of gamma-aminobutyric acid aminotransferase by (S,E)-4-amino-5-fluoropent-2-enoic acid and effect on the enzyme of (E)-3-(1-aminocyclopropyl)-2-propenoic acid” (J Med Chem, 1986)

How the values were obtained:
[1] = Michaelis-Menten constant was determined; format: ADME
[2] = Maximal rate constant was determined; format: ADME
[3] = biological target: 4-aminobutyrate aminotransferase, mitochondrial (Sus scrofa) (UniProt P80147); experiment: Compound was tested for inactivation of Gamma-amino-N-butyrate transaminase in pig brain at pH of 6.5
[4] = biological target: T1, 4-aminobutyrate aminotransferase, mitochondrial (Sus scrofa, UniProt P80147); experiment: Compound was tested for inhibitory constant of Gamma-amino-N-butyrate transaminase in pig brain at pH of 6.5
[5] = biological target: T1, 4-aminobutyrate aminotransferase, mitochondrial; experiment: Compound was tested for inhibitory constant of Gamma-amino-N-butyrate transaminase in pig brain at pH of 8.5 and 25 degree C
[6] = biological target: 4-aminobutyrate aminotransferase, mitochondrial (Sus scrofa) (UniProt P80147); experiment: Compound was tested for inactivation of Gamma-amino-N-butyrate transaminase in pig brain at pH of 8.5 and 25 degree C

Sequence of 4-aminobutyrate aminotransferase, mitochondrial (Sus scrofa) (P80147 whole entry): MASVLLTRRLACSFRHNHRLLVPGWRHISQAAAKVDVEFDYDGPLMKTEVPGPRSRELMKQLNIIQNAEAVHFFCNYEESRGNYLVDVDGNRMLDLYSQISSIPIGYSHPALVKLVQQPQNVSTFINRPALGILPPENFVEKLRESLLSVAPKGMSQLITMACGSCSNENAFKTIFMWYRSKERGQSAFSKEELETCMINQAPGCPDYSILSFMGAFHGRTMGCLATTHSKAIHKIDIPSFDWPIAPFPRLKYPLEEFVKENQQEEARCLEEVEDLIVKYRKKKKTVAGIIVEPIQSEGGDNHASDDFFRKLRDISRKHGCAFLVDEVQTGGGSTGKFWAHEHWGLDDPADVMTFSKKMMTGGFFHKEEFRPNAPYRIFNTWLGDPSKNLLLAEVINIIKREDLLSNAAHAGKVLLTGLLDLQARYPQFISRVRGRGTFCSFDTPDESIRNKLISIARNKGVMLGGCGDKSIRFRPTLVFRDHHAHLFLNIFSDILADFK
T1 sequence (P80147 whole entry): as above

Row | Compound | Km [1] | Vmax [2] | K inact [3] | Ki [4] | Ki [5] | K inact [6]
1 | NCCCC(=O)O [GAMMA-AMINOBUTYRIC ACID] | 1100 µM | 0.14 µM/min/mg |  |  |  | 
2 | NC/C=C/C(=O)O [t-4-AMINOCROTONIC ACID (TACA)] | 1300 µM | 0.35 µM/min/mg |  |  |  | 
3 | NC(/C=C/C(=O)O)CF (stereo not given) |  |  | 0.061 min⁻¹ | 2 mM |  | 
4 | NC(CF)CCC(=O)O (stereo not given) |  |  | 0.31 min⁻¹ | 105 mM | 0.395 mM | 0.5 min⁻¹
